Test results reported in patent US9375013B2, “Herbicidal composition” (ISHIHARA SANGYO KAISHA, LTD., priority 2013, dated 2016).

Tests used:
Type in all cases: in vivo
[1] = system: summergrass (Digitaria ciliaris (Retz.) Koeler); test: Test Example 1: pot soil treatment, growth inhibition of summergrass; conditions: dose 150 g/ha, 14th day after treatment, read-out: Growth inhibition rate (%) of summergrass, Measured value
Description: Upland field soil was put into a 1/160,000 ha pot, and seeds of summergrass (Digitaria ciliaris (Retz.) Koeler) were sown. On the next day, predetermined amounts of flazasulfuron and imazapic were diluted with water (in an amount corresponding to 300 L/ha), and applied for soil treatment by a small sprayer. On the 14th day after treatment, the state of growth of the summergrass was visually observed to determine the growth inhibition rate in accordance with the following evaluation standard. The growth inhibition rate (%) (measured value) and the growth inhibition rate (%) (calculated value) calculated by the Colby's formula are shown in Table 1. Growth inhibition rate (%)=0 (equivalent to the non-treated area) to 100 (complete kill)

[2] = system: wild oat (Avena fatua L.); test: Test Example 3: pot soil treatment, growth inhibition of wild oat; conditions: 22nd day after treatment, read-out: Growth inhibition rate (%) of wild oat, Measured value
Excerpt: (§1) On the 14th day after treatment, the state of growth of the summergrass was visually observed to determine the growth inhibition rate in accordance with the following evaluation standard. The growth inhibition rate (%) (measured value) and the growth inhibition rate (%) (calculated value) calculated by the Colby's formula are shown in Table 1. Growth inhibition rate (%)=0 (equivalent to the non-treated area) to 100 (complete kill) Upland field soil was put into a 1/160,000 ha pot, and seeds of wild oat (Avena fatua L.) were sown. On the next day, predetermined amounts of flazasulfuron, mesotrione and imazapic were diluted with water (in an amount corresponding to 300 L/ha), and applied for soil treatment by a small sprayer. On the 22nd day after treatment, the state of growth of the wild oat was visually observed to determine the growth inhibition rate. The growth inhibition rate (%) (measured value) and the growth inhibition rate (%) calculated in the same manner as in Test Example 1 are shown in Table 3.

[3] = system: persian speedwell (Veronica persica Poir.); test: Test Example 8: pot soil treatment, growth inhibition of persian speedwell; conditions: 21st day after treatment, read-out: Growth inhibition rate (%) of persian speedwell, Measured value
[4] = system: common ragweed (Ambrosia artemisiifolia L.); test: Test Example 11: pot soil treatment, growth inhibition of common ragweed; conditions: dose 150 g/ha, 21st day after treatment, read-out: Growth inhibition rate (%) of common ragweed, Measured value
Excerpt: as §1, with “common ragweed (Ambrosia artemisiifolia” for “wild oat (Avena fatua”, “flazasulfuron” for “flazasulfuron, mesotrione”, “21st” for “22nd”, “common ragweed” for “wild oat”, “11.” for “3.”

[5] = system: common lespedeza (Lespedeza striata (Thunb.) Hook. et Arn.); test: Test Example 12: pot soil treatment, growth inhibition of common lespedeza; conditions: Kummerowia striata, dose 50 g/ha, 21st day after treatment, read-out: Growth inhibition rate (%) of common lespedeza, Measured value
Excerpt: as §1, with “common lespedeza (Lespedeza striata (Thunb.) Hook. et Arn.)” for “wild oat (Avena fatua L.)”, “flazasulfuron” for “flazasulfuron, mesotrione”, “21st” for “22nd”, “common lespedeza” for “wild oat”, “12.” for “3.”

[6] = system: velvetleaf (Abutilon theophrasti MEDIC.); test: Test Example 13: pot soil treatment, growth inhibition of velvetleaf; conditions: dose 50 g/ha, 21st day after treatment, read-out: Growth inhibition rate (%) of velvetleaf, Measured value
[7] = system: field bindweed (Convolvulus arvensis L.); test: Test Example 15: pot soil treatment, growth inhibition of field bindweed; conditions: 21st day after treatment, read-out: Growth inhibition rate (%) of field bindweed, Measured value
Excerpt: as §1, with “field bindweed (Convolvulus arvensis” for “wild oat (Avena fatua”, “21st” for “22nd”, “field bindweed” for “wild oat”, “15.” for “3.”

[8] = system: ivy-leaved morningglory (Ipomoea hederacea (L.) Jacq.); test: Test Example 2: pot soil treatment, growth inhibition of ivy-leaved morningglory; conditions: 22nd day after treatment, read-out: Growth inhibition rate (%) of ivy-leaved morningglory, Measured value
Excerpt: as §1, with “ivy-leaved morningglory (Ipomoea hederacea (L.) Jacq.)” for “wild oat (Avena fatua L.)”, “flazasulfuron” for “flazasulfuron, mesotrione”, “hexazinone” for “imazapic”, “ivy-leaved morningglory” for “wild oat”, “2.” for “3.”

[9] = system: field bindweed (Convolvulus arvensis L.); test: Test Example 5: pot soil treatment, growth inhibition of field bindweed; conditions: dose 300 g/ha, 22nd day after treatment, read-out: Growth inhibition rate (%) of field bindweed, Measured value
Excerpt: as §1, with “field bindweed (Convolvulus arvensis” for “wild oat (Avena fatua”, “flazasulfuron” for “flazasulfuron, mesotrione”, “hexazinone” for “imazapic”, “field bindweed” for “wild oat”, “5.” for “3.”

[10] = system: shattercane (Sorghum bicolor (L.) Moench.); test: Test Example 6: pot soil treatment, growth inhibition of shattercane; conditions: dose 100 g/ha, 22nd day after treatment, read-out: Growth inhibition rate (%) of shattercane, Measured value
Excerpt: On the 14th day after treatment, the state of growth of the summergrass was visually observed to determine the growth inhibition rate in accordance with the following evaluation standard. The growth inhibition rate (%) (measured value) and the growth inhibition rate (%) (calculated value) calculated by the Colby's formula are shown in Table 1. Growth inhibition rate (%)=0 (equivalent to the non-treated area) to 100 (complete kill)
Upland field soil was put into a 1/160,000 ha pot, and seeds of shattercane (Sorghum bicolor (L.) Moench.) were sown. On the next day, predetermined amounts of flazasulfuron and hexazinone were diluted with water (in an amount corresponding to 300 L/ha), and applied for soil treatment by a small sprayer.
On the 22nd day after treatment, the state of growth of the shattercane was visually observed to determine the growth inhibition rate. The growth inhibition rate (%) (measured value) and the growth inhibition rate (%) calculated in the same manner as in Test Example 1 are shown in Table 6.

[11] = system: barnyardgrass (Echinochloa crus-galli L); test: Test Example 9: pot soil treatment, growth inhibition of barnyardgrass; conditions: dose 100 g/ha, 21st day after treatment, read-out: Growth inhibition rate (%) of barnyardgrass, Measured value
Excerpt: as §1, with “barnyardgrass (Echinochloa crus-galli L)” for “wild oat (Avena fatua L.)”, “flazasulfuron” for “flazasulfuron, mesotrione”, “hexazinone” for “imazapic”, “21st” for “22nd”, “barnyardgrass” for “wild oat”, “9.” for “3.”

[12] = system: persian speedwell (Veronica persica Poiret.); test: Test Example 10: pot soil treatment, growth inhibition of persian speedwell; conditions: dose 100 g/ha, 21st day after treatment, read-out: Growth inhibition rate (%) of persian speedwell, Measured value
[13] = system: velvetleaf (Abutilon theophrasti MEDIC.); test: Test Example 14: pot soil treatment, growth inhibition of velvetleaf; conditions: dose 200 g/ha, 21st day after treatment, read-out: Growth inhibition rate (%) of velvetleaf, Measured value
Excerpt: as §1, with “velvetleaf (Abutilon theophrasti MEDIC.)” for “wild oat (Avena fatua L.)”, “flazasulfuron” for “flazasulfuron, mesotrione”, “hexazinone” for “imazapic”, “21st” for “22nd”, “velvetleaf” for “wild oat”, “14.” for “3.”

[14] = system: guinea grass (Panicum maximum Jacq.); test: Test Example 4: pot soil treatment, growth inhibition of guinea grass; conditions: Megathyrsus maximus, dose 200 g/ha, 22nd day after treatment, read-out: Growth inhibition rate (%) of guinea grass, Measured value
Excerpt: as §1, with “guinea grass (Panicum maximum Jacq.)” for “wild oat (Avena fatua L.)”, “flazasulfuron and” for “flazasulfuron,”, “mesotrione” for “mesotrione and imazapic”, “guinea grass” for “wild oat”, “4.” for “3.”

[15] = system: rostrate sesbania(Sesbania rostrata Bremek. & Oberm.); test: Test Example 7: pot soil treatment, growth inhibition of rostrate sesbania; conditions: 22nd day after treatment, read-out: Growth inhibition rate (%) of rostrate sesbania, Measured value

Cc1cnc(C2=NC(=O)C(C)(C(C)C)N2)c(C(=O)O)c1 (stereo not drawn) [Imazapic, imazapic]
inhibition at 150 g/ha [1]: 50% | inhibition at 100 g/ha ([2]; dose 100 g/ha): 40% | inhibition at 150 g/ha ([2]; dose 150 g/ha): 60% | inhibition at 50 g/ha [3]: 50% | inhibition at 150 g/ha [4]: 60% | inhibition at 50 g/ha [5]: 0% | inhibition at 50 g/ha [6]: 30% | inhibition at 150 g/ha ([7]; dose 150 g/ha): 15%

CN(C)c1nc(=O)n(C2CCCCC2)c(=O)n1C [Hexazinone, hexazinone]
inhibition at 100 g/ha ([8]; dose 100 g/ha): 0% | inhibition at 200 g/ha ([8]; dose 200 g/ha): 30% | inhibition at 300 g/ha ([8]; dose 300 g/ha): 40% | inhibition at 300 g/ha [9]: 15% | inhibition at 100 g/ha [10]: 0% | inhibition at 100 g/ha [11]: 0% | inhibition at 100 g/ha [12]: 85% | inhibition at 200 g/ha [13]: 30%

CS(=O)(=O)c1ccc(C(=O)C2C(=O)CCCC2=O)c([N+](=O)[O-])c1 [Mesotrione, mesotrione]
inhibition at 50 g/ha ([2]; dose 50 g/ha): 40% | inhibition at 200 g/ha ([2]; dose 200 g/ha): 0% | inhibition at 200 g/ha [14]: 0% | inhibition at 50 g/ha [15]: 15% | inhibition at 200 g/ha ([7]; dose 200 g/ha): 60%
